This is an account of results in ChEMBL document CHEMBL4330132, “5-Keto-3-cyano-2,4-diaminothiophenes as selective maternal embryonic leucine zipper kinase inhibitors” (Bioorg Med Chem Lett, 2019).

Experiment [1] addresses Mitogen-activated protein kinase kinase kinase 5 (Homo sapiens) (UniProt Q99683). Kind of experiment: Binding affinity to wild-type human partial length ASK1 (E648 to S964 residues) expressed in bacterial expression system assessed as residual binding level at 1 uM by Kinomescan method relative to control.
Experiment [2] has as its target Cyclin-dependent kinase 5 (Homo sapiens) (UniProt Q00535). The experiment is described as follows: Binding affinity to wild-type human full length CDK5 (M1 to P292 residues) expressed in bacterial expression system assessed as residual binding level at 1 uM by Kinomescan method relative to control.
Experiment [3] addresses Serine/threonine-protein kinase Chk1 (Homo sapiens) (UniProt O14757). The experiment is described as follows: Binding affinity to wild-type human partial length CHEK1 (M1 to G289 residues) expressed in bacterial expression system assessed as residual binding level at 1 uM by Kinomescan method relative to control.
Experiment [4] has as its target Death-associated protein kinase 2 (Homo sapiens) (UniProt Q9UIK4). Kind of experiment: Binding affinity to wild-type human full length DAPK2 (M1 to S370 residues) expressed in bacterial expression system assessed as residual binding level at 1 uM by Kinomescan method relative to control.
Experiment [5] has as its system Epidermal growth factor receptor (Homo sapiens), P00533 [UNDEFINED MUTATION]. The experiment is described as follows: Binding affinity to human partial length EGFR L747-S752del/P753S mutant expressed in bacterial expression system assessed as residual binding level at 1 uM by Kinomescan method relative to control.
The target in experiment [6] is Fibroblast growth factor receptor 2 (Homo sapiens) (UniProt P21802). Kind of experiment: Binding affinity to wild-type human partial length FGFR2 (D457 to E769 residues) expressed in bacterial expression system assessed as residual binding level at 1 uM by Kinomescan method relative to control.
Experiment [7] deals with Receptor-type tyrosine-protein kinase FLT3 (Homo sapiens), P36888 [D835H]. Kind of experiment: Binding affinity to human partial length FLT3 D835H mutant (V592 to Y969 residues) expressed in bacterial expression system assessed as residual binding level at 1 uM by Kinomescan method relative to control.
Experiment [8] relates to Receptor-type tyrosine-protein kinase FLT3 (Homo sapiens), P36888 [R834Q]. Kind of experiment: Binding affinity to human partial length FLT3 R834Q mutant (V592 to Y969 residues) expressed in mammalian expression system assessed as residual binding level at 1 uM by Kinomescan method relative to control.
For experiment [9], the target named is Vascular endothelial growth factor receptor 3 (Homo sapiens) (UniProt P35916). The experiment is described as follows: Binding affinity to wild-type human partial length FLT4 (E821 to E1196 residues) expressed in bacterial expression system assessed as residual binding level at 1 uM by Kinomescan method relative to control.
For experiment [10], the target named is Inhibitor of nuclear factor kappa-B kinase subunit alpha (Homo sapiens) (UniProt O15111). The experiment is described as follows: Binding affinity to wild-type human full length IKK-alpha (M1 to E745 residues) expressed in mammalian expression system assessed as residual binding level at 1 uM by Kinomescan method relative to control.
For experiment [11], the target named is Microtubule-associated serine/threonine-protein kinase 1 (Homo sapiens) (UniProt Q9Y2H9). The experiment is described as follows: Binding affinity to wild-type human partial length MAST1 (S346 to V730 residues) expressed in mammalian expression system assessed as residual binding level at 1 uM by Kinomescan method relative to control.
Experiment [12] concerns the target Dual specificity mitogen-activated protein kinase kinase 3 (Homo sapiens) (UniProt P46734). The experiment is described as follows: Binding affinity to wild-type human full length MEK3 (M1 to S318 residues) expressed in mammalian expression system assessed as residual binding level at 1 uM by Kinomescan method relative to control.
The target of experiment [13] is Macrophage-stimulating protein receptor (Homo sapiens) (UniProt Q04912). Kind of experiment: Binding affinity to wild-type human partial length MST1R (I1057 to L1363 residues) expressed in bacterial expression system assessed as residual binding level at 1 uM by Kinomescan method relative to control.
The target of experiment [14] is Serine/threonine-protein kinase Nek7 (Homo sapiens) (UniProt Q8TDX7). The experiment is described as follows: Binding affinity to wild-type human full length NEK7 (M1 to S302 residues) expressed in bacterial expression system assessed as residual binding level at 1 uM by Kinomescan method relative to control.
Experiment [15] addresses Cyclin-dependent kinase 14 (Homo sapiens) (UniProt O94921). The experiment is described as follows: Binding affinity to wild-type human full length PFTK1 (M1 to H451 residues) expressed in bacterial expression system assessed as residual binding level at 1 uM by Kinomescan method relative to control.
In experiment [16] the target is Serine/threonine-protein kinase D3 (Homo sapiens) (UniProt O94806). Kind of experiment: Binding affinity to wild-type human partial length PRKD3 (S543 to E863 residues) expressed in bacterial expression system assessed as residual binding level at 1 uM by Kinomescan method relative to control.
In experiment [17] the target is Serine/threonine-protein kinase PRP4 homolog (Homo sapiens) (UniProt Q13523). Kind of experiment: Binding affinity to wild-type human partial length PRP4 (D657 to I1007 residues) expressed in bacterial expression system assessed as residual binding level at 1 uM by Kinomescan method relative to control.
The target in experiment [18] is Ribosomal protein S6 kinase beta-1 (Homo sapiens) (UniProt P23443). Kind of experiment: Binding affinity to wild-type human partial length S6K1 (M1 to S421 residues) expressed in mammalian expression system assessed as residual binding level at 1 uM by Kinomescan method relative to control.
The target of experiment [19] is Serine/threonine-protein kinase SIK2 (Homo sapiens) (UniProt Q9H0K1). Kind of experiment: Binding affinity to wild-type human full length SIK2 (M1 to N926 residues) expressed in bacterial expression system assessed as residual binding level at 1 uM by Kinomescan method relative to control.
Experiment [20] has as its target Serine/threonine-protein kinase 35 (Homo sapiens) (UniProt Q8TDR2). Kind of experiment: Binding affinity to wild-type human partial length STK35 (G182 to A534 residues) expressed in bacterial expression system assessed as residual binding level at 1 uM by Kinomescan method relative to control.
The target of experiment [21] is Mitogen-activated protein kinase kinase kinase 7 (Homo sapiens) (UniProt O43318). The experiment is described as follows: Binding affinity to wild-type human partial length TAK1 (M1 to Q303 residues) expressed in mammalian expression system assessed as residual binding level at 1 uM by Kinomescan method relative to control.
Experiment [22] has as its target Serine/threonine-protein kinase tousled-like 1 (Homo sapiens) (UniProt Q9UKI8). Kind of experiment: Binding affinity to wild-type human partial length TLK1 (K447 to A754 residues) expressed in bacterial expression system assessed as residual binding level at 1 uM by Kinomescan method relative to control.
Experiment [23] deals with Non-receptor tyrosine-protein kinase TYK2 (Homo sapiens) (UniProt P29597). Kind of experiment: Binding affinity to wild-type human partial length TYK2 JH1 catalytic domain (V877 to C1187 residues) expressed in mammalian expression system assessed as residual binding level at 1 uM by Kinomescan method relative to control.
Experiment [24] deals with Tyrosine-protein kinase ZAP-70 (Homo sapiens) (UniProt P43403). The experiment is described as follows: Binding affinity to wild-type human partial length ZAP70 (D20 to G299 residues) expressed in mammalian expression system assessed as residual binding level at 1 uM by Kinomescan method relative to control.

Molecules are shown by their SMILES.

Chain of Macrophage-stimulating protein receptor (Homo sapiens) (Q04912 25-304 limits assumed): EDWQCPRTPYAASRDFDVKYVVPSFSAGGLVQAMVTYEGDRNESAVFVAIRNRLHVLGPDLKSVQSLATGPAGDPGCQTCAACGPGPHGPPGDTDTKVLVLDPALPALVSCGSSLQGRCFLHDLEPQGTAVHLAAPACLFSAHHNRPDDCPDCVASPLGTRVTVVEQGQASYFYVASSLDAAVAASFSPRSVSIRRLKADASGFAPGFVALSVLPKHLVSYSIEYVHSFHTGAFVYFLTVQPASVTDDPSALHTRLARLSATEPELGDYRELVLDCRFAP
Chain of Macrophage-stimulating protein receptor (Homo sapiens) (Q04912 310-1400 limits assumed): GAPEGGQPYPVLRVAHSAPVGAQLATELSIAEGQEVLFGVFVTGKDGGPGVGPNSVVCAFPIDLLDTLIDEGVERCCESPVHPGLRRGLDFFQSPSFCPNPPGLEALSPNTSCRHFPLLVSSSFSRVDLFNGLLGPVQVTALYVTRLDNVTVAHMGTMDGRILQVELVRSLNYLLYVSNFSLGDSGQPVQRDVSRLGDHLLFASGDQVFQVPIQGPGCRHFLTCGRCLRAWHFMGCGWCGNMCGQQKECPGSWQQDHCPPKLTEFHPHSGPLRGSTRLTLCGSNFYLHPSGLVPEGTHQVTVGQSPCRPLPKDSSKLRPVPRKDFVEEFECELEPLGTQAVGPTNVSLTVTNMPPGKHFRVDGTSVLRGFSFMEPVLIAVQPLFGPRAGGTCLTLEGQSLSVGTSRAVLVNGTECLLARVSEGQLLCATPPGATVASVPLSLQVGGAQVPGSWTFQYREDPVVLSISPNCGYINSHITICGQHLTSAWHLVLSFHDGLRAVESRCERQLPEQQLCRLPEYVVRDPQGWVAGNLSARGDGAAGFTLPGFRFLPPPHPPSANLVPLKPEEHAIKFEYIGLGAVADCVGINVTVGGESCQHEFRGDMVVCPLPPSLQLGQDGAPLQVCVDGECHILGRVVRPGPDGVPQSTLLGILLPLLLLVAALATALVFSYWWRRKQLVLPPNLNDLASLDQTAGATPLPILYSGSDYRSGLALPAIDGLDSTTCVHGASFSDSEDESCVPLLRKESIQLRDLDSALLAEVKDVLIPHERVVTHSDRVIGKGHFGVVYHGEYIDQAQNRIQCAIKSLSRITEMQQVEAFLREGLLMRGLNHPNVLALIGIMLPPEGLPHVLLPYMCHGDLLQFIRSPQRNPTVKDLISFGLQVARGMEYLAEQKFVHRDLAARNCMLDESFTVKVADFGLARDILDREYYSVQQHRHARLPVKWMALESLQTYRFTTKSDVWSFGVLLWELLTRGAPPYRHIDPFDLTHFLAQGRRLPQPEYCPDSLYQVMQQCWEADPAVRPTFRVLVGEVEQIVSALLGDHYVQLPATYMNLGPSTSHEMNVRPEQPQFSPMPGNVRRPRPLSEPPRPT
Chain of Serine/threonine-protein kinase Nek7 (Homo sapiens) (Q8TDX7 whole entry, looked up, the tested form may be a part): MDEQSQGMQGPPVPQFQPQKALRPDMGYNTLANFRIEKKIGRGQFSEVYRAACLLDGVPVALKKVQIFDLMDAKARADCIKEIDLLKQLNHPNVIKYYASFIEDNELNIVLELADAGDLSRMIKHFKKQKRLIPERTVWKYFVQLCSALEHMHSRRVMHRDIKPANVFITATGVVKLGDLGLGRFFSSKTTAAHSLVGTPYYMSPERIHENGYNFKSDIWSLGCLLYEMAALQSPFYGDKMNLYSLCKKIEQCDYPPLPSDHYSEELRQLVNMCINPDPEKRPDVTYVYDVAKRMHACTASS
Chain of Serine/threonine-protein kinase PRP4 homolog (Homo sapiens) (Q13523 whole entry, the tested form may be a part): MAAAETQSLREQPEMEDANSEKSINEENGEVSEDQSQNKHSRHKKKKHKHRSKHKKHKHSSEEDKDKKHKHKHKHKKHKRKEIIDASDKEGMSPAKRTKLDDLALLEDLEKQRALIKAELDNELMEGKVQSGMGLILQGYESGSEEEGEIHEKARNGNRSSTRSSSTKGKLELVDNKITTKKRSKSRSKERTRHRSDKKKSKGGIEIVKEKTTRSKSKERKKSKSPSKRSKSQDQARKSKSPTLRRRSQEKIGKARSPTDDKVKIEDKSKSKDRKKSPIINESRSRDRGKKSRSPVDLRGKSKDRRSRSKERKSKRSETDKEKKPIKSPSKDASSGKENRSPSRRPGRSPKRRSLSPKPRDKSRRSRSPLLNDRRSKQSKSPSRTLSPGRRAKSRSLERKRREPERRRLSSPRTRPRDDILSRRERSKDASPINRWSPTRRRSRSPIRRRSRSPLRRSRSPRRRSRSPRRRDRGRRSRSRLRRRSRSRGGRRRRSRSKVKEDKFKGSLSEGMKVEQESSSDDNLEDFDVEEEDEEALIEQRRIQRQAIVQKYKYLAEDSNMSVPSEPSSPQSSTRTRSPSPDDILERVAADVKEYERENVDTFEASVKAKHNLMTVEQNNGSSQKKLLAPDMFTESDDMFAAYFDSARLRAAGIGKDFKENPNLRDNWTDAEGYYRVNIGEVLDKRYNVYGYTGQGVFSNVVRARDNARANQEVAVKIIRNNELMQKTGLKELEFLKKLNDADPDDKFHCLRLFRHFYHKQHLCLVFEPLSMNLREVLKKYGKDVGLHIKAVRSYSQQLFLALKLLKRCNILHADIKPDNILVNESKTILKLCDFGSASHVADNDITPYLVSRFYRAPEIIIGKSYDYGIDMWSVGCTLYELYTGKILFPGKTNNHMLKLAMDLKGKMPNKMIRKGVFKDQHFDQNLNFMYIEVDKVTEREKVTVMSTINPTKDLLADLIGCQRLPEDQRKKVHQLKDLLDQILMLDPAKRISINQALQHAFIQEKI
Chain of Fibroblast growth factor receptor 2 (Homo sapiens) (P21802 22-821 limits assumed): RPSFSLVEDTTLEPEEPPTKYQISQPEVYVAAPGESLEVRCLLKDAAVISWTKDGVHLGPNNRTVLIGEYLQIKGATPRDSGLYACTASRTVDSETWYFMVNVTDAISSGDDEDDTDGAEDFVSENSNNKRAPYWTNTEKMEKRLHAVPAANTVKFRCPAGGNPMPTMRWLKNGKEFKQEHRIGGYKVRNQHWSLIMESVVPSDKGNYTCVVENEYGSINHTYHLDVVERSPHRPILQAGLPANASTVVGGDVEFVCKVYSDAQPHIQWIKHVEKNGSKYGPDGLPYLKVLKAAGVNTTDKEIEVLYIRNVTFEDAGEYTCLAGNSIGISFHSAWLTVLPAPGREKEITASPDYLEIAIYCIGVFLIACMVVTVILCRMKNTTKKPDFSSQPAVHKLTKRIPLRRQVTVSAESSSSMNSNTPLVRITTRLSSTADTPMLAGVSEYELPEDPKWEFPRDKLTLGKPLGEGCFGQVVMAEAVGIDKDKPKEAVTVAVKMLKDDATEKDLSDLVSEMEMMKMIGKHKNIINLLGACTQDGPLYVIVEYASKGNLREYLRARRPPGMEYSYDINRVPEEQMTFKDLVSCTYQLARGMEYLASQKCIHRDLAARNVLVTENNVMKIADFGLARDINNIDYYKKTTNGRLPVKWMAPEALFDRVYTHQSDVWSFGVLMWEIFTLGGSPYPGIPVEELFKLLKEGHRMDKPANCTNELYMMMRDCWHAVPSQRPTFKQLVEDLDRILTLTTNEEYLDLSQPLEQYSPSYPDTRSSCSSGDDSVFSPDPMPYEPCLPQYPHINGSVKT
Chain of Serine/threonine-protein kinase D3 (Homo sapiens) (O94806 whole entry, the tested form may be a part): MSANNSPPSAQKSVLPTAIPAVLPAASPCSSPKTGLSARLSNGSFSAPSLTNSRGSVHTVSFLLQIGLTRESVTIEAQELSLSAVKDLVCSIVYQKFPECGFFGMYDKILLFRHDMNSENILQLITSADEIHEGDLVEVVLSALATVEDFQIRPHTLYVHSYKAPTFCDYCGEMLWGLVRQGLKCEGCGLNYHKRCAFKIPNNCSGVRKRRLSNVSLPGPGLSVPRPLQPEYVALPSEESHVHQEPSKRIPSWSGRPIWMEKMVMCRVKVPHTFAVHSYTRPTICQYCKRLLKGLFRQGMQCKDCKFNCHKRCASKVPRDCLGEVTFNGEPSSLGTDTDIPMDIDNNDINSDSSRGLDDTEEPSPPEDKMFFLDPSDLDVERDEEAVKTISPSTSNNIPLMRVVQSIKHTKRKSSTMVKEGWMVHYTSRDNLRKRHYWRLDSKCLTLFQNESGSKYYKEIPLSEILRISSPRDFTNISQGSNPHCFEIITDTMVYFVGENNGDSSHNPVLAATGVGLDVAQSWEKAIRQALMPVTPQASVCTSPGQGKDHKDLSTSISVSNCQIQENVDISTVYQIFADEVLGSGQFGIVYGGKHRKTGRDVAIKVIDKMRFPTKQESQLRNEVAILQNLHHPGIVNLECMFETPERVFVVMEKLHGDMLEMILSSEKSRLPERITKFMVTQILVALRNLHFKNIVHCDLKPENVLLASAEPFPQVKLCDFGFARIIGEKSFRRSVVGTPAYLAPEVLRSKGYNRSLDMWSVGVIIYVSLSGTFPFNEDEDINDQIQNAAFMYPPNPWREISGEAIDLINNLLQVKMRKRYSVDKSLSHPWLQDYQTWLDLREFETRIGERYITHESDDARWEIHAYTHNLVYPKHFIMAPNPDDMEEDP
Chain of Dual specificity mitogen-activated protein kinase kinase 3 (Homo sapiens) (P46734 whole entry, the tested form may be a part): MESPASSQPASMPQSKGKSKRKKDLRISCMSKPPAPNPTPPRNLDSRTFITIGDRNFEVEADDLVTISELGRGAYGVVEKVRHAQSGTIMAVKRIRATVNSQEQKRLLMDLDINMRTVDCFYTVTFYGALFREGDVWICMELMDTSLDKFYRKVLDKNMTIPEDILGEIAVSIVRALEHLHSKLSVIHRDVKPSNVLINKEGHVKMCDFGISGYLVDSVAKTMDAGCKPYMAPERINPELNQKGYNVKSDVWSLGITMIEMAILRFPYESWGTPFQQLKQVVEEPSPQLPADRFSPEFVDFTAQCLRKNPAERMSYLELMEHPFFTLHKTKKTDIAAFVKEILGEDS
Chain of Cyclin-dependent kinase 5 (Homo sapiens) (Q00535 whole entry, looked up, the tested form may be a part): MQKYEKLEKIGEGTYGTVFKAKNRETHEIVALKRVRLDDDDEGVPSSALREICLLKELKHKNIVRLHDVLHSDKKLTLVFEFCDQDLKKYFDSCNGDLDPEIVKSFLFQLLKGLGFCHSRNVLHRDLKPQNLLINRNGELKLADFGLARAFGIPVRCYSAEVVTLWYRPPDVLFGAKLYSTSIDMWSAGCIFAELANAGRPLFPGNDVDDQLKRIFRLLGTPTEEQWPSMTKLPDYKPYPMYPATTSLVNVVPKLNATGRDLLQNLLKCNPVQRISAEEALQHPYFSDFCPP

As to `CC(C)Nc1sc(C(=O)c2ccc(Cl)s2)c(N)c1C#N`, the Activity in experiment [1] stood at 100%; in [2] it was 100%; in experiment [3], 87%; in experiment [4], 66%; in experiment [5], 82%; in experiment [6] it was 99%. Moreover, the Activity in [7] was determined as 60%; in [8] it was 99%; in experiment [9], 50%; in experiment [10] it was 100%; in experiment [11], 100%; in experiment [12] it was 100%. Further, the Activity in [13] was determined as 98%; in experiment [14], 84%; in experiment [15] it was 93%; in experiment [16] it was 62%; in experiment [17], 100%; in experiment [18] it was 93%. The Activity worked out at 92% in experiment [19]; 80% in experiment [20]; 100% in [21]; 100% in experiment [22]; 100% in experiment [23]; 100% in [24].
